# Literature values, collected in patent US7557115B2, “Compounds, compositions, and methods” (Cytokinetics, Inc., priority 2002, dated 2009).
# Tested on: A549 cells
# Settings: concentration that decreases rate of cell growth by fifty percent
row,GI50 [nM],Structure (SMILES)
1,1000,O=c1[nH]cc(F)c(=O)[nH]1 [5-fluorouracil]
2,63,COc1cccc2c1C(=O)c1c(O)c3c(c(O)c1C2=O)C[C@@](O)(C(=O)CO)C[C@@H]3O[C@H]1C[C@H](N)[C@H](O)[C@H](C)O1 [doxorubicin]
3,500000,NC(=O)NO [hydroxyurea]
4,4,CC(=O)O[C@H]1C(=O)[C@@]2(C)[C@H]([C@H](OC(=O)c3ccccc3)[C@]3(O)C[C@H](OC(=O)[C@H](O)[C@@H](NC(=O)c4ccccc4)c4ccccc4)C(C)=C1C3(C)C)[C@]1(OC(C)=O)CO[C@@H]1C[C@@H]2O [paclitaxel]
